pIC50: −log10 of the molar value.
Target: T1, human TSHR (Homo sapiens, UniProt P16473)
T1 construct: expressed in transfected cells
Assay: Measurement of antagonist activity using TSH-induced cAMP production in human TSHR-stably expressing CHO cells
Assay type: cell-based
Conditions: human TSH final concentration 50 ng/mL
Protocol: Measurement of Antagonist Activity Using TSH-induced cAMP Production in Human TSHR-stably Expressing CHO Cells as an Indicator
A gene sequence of human TSHR (reference number NM_000369.2) was inserted into a multiple cloning site of pcDNA3.1(+). The prepared plasmid vector was introduced into CHO cells by a lipofection method to establish human TSHR stably expressing CHO cells. The obtained cells were seeded in a poly-D-lysine-coated 96-well plate at 5 x 10^4 cells/well, and cultured for 1 day in F12 medium containing 10% FBS, 400 µg/mL G418, 50 U/mL penicillin, and 50 µg/mL streptomycin under conditions of 37°C and 5% CO2. After removing a medium, the cells were washed twice with 100 µL per well of an assay buffer (Hanks' Balanced Salt Solution containing 20 mM HEPES and 1 mM IBMX). 30 µL of an assay buffer containing a test compound was added to a well, and the mixture was incubated at room temperature for 15 minutes. Next, 30 µL of an assay buffer containing human TSH (R&D Systems, Inc., final concentration 50 ng/mL) was added, and the mixture was incubated at 37°C for 1 hour. The supernatant was removed, and Lysis and Detection Buffer 2 (Cisbio) was added to prepare a cell lysate by incubating at room temperature for 1 hour. According to the instructions for use of a cAMP Gs HiRange kit (Cisbio), a cell lysate was reacted with d2-labeled cAMP and an anti-cAMP Europium Cryptate labeled antibody (Cisbio) in a 384-well white microplate. Next, a fluorescence intensity ratio (measurement wavelengths 665 nm/620 nm) was measured using a multiplate reader (PHERAstar FSX, BMG LABTECH Japan). A fluorescence intensity ratio of each sample was converted into a cAMP content using a standard curve. A cAMP content was converted into a percentage of a control value, and a cAMP production rate was calculated. Using Prism (Graph Pad Software Inc.), a cAMP production rate was plotted against a test compound concentration, and an IC50 value was calculated. The IC50 of each test compound is shown in the above tables. In the tables, IC50 < 3.0 µM was denoted as A, and 3.0 µM ≤ IC50 < 30 µM was denoted as B. The case where activity was observed but an IC50 value could not be calculated was denoted as C.

T1 sequence (P16473 21-764): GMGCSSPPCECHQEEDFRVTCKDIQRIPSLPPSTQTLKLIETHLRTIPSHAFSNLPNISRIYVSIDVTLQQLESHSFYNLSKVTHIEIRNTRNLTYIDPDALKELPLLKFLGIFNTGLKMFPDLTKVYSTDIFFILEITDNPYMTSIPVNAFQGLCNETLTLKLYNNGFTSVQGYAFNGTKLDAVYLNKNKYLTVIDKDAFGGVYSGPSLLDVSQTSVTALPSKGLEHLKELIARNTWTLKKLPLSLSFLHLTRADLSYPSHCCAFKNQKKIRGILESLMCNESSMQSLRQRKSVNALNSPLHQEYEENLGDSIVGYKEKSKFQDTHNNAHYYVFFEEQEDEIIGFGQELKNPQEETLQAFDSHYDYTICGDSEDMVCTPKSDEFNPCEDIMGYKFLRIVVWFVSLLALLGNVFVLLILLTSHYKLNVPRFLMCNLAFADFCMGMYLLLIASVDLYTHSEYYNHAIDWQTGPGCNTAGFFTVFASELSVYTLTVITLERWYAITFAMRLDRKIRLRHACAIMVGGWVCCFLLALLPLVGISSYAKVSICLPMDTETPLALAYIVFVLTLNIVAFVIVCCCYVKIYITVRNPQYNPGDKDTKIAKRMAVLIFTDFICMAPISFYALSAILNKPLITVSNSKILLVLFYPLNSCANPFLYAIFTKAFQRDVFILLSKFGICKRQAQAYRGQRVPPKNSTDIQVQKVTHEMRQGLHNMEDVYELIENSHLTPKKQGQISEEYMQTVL

Compound | pIC50
NC(=O)NC1CCC2(CC2)N(Cc2cccc(C(F)(F)F)c2)C1=O (stereo not shown) [Example A-20, 1-(5-oxo-4-(3-(trifluoromethyl)benzyl)-4-azaspiro[2.5]octan-6-yl)urea] | 4.52 to 5.52
NC(=O)N[C@@H]1CC[C@@H](C(F)(F)F)N(Cc2cc(OC(F)(F)C(F)F)ccc2F)C1=O [Example A-16, 1-((3R,6S)-1-(2-fluoro-5-(1,1,2,2-tetrafluoroethoxy)benzyl)-2-oxo-6-(trifluoromethyl)piperidin-3-yl)urea] | > 5.52
NC(=O)N[C@@H]1CC[C@@H](C(F)(F)F)N(Cc2cc(C(F)(F)F)ccc2F)C1=O [Example A-14, 1-((3R,6S)-1-(2-fluoro-5-(trifluoromethyl)benzyl)-2-oxo-6-(trifluoromethyl)piperidin-3-yl)urea] | > 5.52
CNC(=O)Nc1ccc(C)n(Cc2cc(C(F)(F)F)cc(Cl)c2F)c1=O [Example B-10, 1-(1-(3-chloro-2-fluoro-5-(trifluoromethyl)benzyl)-6-methyl-2-oxo-1,2-dihydropyridin-3-yl)-3-methylurea] | > 5.52
C[C@@H]1CC[C@@H](NC(N)=O)C(=O)N1Cc1cc(C#Cc2ccncc2)ccc1F (relative stereo) [Example A-8, 1-((3R^*,6R^*)-1-(2-fluoro-5-(pyridin-4-ylethynyl)benzyl)-6-methyl-2-oxopiperidin-3-yl)urea] | > 5.52
C[C@@H]1CC[C@@H](NC(N)=O)C(=O)N1Cc1cc(C#Cc2cccnc2)ccc1F (relative stereo) [Example A-9, 1-((3R^*,6R^*)-1-(2-fluoro-5-(pyridin-3-ylethynyl)benzyl)-6-methyl-2-oxopiperidin-3-yl)urea] | > 5.52
COc1cccc(CN2C(=O)[C@H](NC(N)=O)Cc3ccccc32)c1 [Example C-3, (R)-1-(1-(3-methoxybenzyl)-2-oxo-1,2,3,4-tetrahydroquinolin-3-yl)urea] | < 4.52
NC(=O)N[C@@H]1Cc2ccc(C(F)F)cc2N(Cc2cc(C(F)(F)F)ccc2CO)C1=O [Example F-1, (R)-1-(7-(difluoromethyl)-1-(2-(hydroxymethyl)-5-(trifluoromethyl)benzyl)-2-oxo-1,2,3,4-tetrahydroquinolin-3-yl)urea] | 4.52 to 5.52
COc1ccc2c(c1)N(Cc1cccc(C(F)(F)F)c1)C(=O)[C@H](NC(N)=O)C2 [Example C-7, (R)-1-(7-methoxy-2-oxo-1-(3-(trifluoromethyl)benzyl)-1,2,3,4-tetrahydroquinolin-3-yl)urea] | > 5.52
NC(=O)N[C@@H]1Cc2ccccc2N(CC2CCCCC2)C1=O [Example C-27, (R)-1-(1-(cyclohexylmethyl)-2-oxo-1,2,3,4-tetrahydroquinolin-3-yl)urea] | < 4.52
CN(C)C(=O)C[C@@H]1CC[C@@H](NC(N)=O)C(=O)N1Cc1cc(C(F)(F)F)ccc1F (relative stereo) [Example D-10, 2-((2S^*,5R^*)-1-(2-fluoro-5-(trifluoromethyl)benzyl)-6-oxo-5-ureidopiperidin-2-yl)-N,N-dimethylacetamide] | < 4.52
NC(=O)N[C@@H]1C[C@@H]2CCCC[C@H]2N(Cc2cccc(C(F)(F)F)c2)C1=O (relative stereo) [Example A-29, 1-((3R^*,4aS^*,8aR^*)-(2-oxo-1-(3-(trifluoromethyl)benzyl)decahydroquinolin-3-yl)urea] | < 4.52
Cc1ccc(NC(=O)C(F)(F)F)c(=O)n1Cc1cc(C(F)(F)F)cc(Cl)c1F [Example E-8, N-(1-(3-chloro-2-fluoro-5-(trifluoromethyl)benzyl)-6-methyl-2-oxo-1,2-dihydropyridin-3-yl)-2,2,2-trifluoroacetamide] | 4.52 to 5.52
NC(=O)N[C@@H]1Cc2ccc(C(=O)O)cc2N(Cc2cc(C(F)(F)F)ccc2F)C1=O [Example C-29, (R)-1-(2-fluoro-5-(trifluoromethyl)benzyl)-2-oxo-3-ureido-1,2,3,4-tetrahydroquinolin-7-carboxylic acid] | < 4.52
CC(C)(C)OC(=O)NCCc1cc(NC(N)=O)c(=O)n(Cc2cc(C(F)(F)F)ccc2F)c1 [Example B-3, tert-butyl (2-(1-(2-fluoro-5-(trifluoromethyl)benzyl)-6-oxo-5-ureido-1,6-dihydropyridin-3-yl)ethyl)carbamate] | > 5.52
NC(=O)N[C@@H]1Cc2ccc(C(F)F)cc2N(Cc2cc(C(F)F)ccc2F)C1=O [Example C-14, (R)-1-(7-(difluoromethyl)-1-(5-(difluoromethyl)-2-fluorobenzyl)-2-oxo-1,2,3,4-tetrahydroquinolin-3-yl)urea] | > 5.52

Compound | pIC50
NC(=O)N[C@@H]1CC[C@@H](C(F)(F)F)N(Cc2cc(C(F)F)ccc2F)C1=O [Example A-15, 1-((3R,6S)-1-(5-(difluoromethyl)-2-fluorobenzyl)-2-oxo-6-(trifluoromethyl)piperidin-3-yl)urea] | > 5.52
CNC(=O)N[C@@H]1Cc2ccc(C(F)(F)F)cc2N(Cc2cc(C(F)F)ccc2F)C1=O [Example C-28, (R)-1-(1-(5-(difluoromethyl)-2-fluorobenzyl)-2-oxo-7-(trifluoromethyl)-1,2,3,4-tetrahydroquinolin-3-yl)-3-methylurea] | > 5.52
C[C@@H]1CC[C@@H](NC(N)=O)C(=O)N1Cc1cc(C(F)(F)F)cc(Cl)c1F (relative stereo) [Example A-3, 1-((3R^*,6R^*)-1-(3-chloro-2-fluoro-5-(trifluoromethyl)benzyl)-6-methyl-2-oxopiperidin-3-yl)urea] | > 5.52
NC(=O)N[C@@H]1CC[C@@H](CO)N(Cc2cc(C(F)(F)F)ccc2F)C1=O [Example D-4, 1-((3R,6S)-1-(2-fluoro-5-(trifluoromethyl)benzyl)-6-(hydroxymethyl)-2-oxopiperidin-3-yl)urea] | 4.52 to 5.52
NC(=O)N[C@@H]1C[C@H](F)CN(Cc2cc(C(F)(F)F)ccc2F)C1=O [Example A-18, 1-((3R,5S)-5-fluoro-1-(2-fluoro-5-(trifluoromethyl)benzyl)-2-oxopiperidin-3-yl)urea] | < 4.52
CO[C@@H](C)C(=O)N[C@@H]1CC[C@@H](C(F)(F)F)N(Cc2cc(C(F)(F)F)ccc2F)C1=O [Example A-25, (S)-N-((3R,6S)-1-(2-fluoro-5-(trifluoromethyl)benzyl)-2-oxo-6-(trifluoromethyl)piperidin-3-yl)-2-methoxypropanamide] | < 4.52
COCc1ccc(NC(N)=O)c(=O)n1Cc1cc(C(F)(F)F)cc(Cl)c1F [Example E-2, 1-(1-(3-chloro-2-fluoro-5-(trifluoromethyl)benzyl)-6-(methoxymethyl)-2-oxo-1,2-dihydropyridin-3-yl)urea] | > 5.52
NC(=O)N[C@@H]1Cc2ccccc2N(CCc2ccccc2)C1=O [Example C-25, (R)-1-(2-oxo-1-phenethyl-1,2,3,4-tetrahydroquinolin-3-yl)urea] | 4.52 to 5.52
NC(=O)N[C@@H]1Cc2ccc(C(F)(F)F)cc2N(Cc2cc(C(F)F)ccc2F)C1=O [Example C-15, (R)-1-(1-(5-(difluoromethyl)-2-fluorobenzyl)-2-oxo-7-(trifluoromethyl)-1,2,3,4-tetrahydroquinolin-3-yl)urea] | > 5.52
C[C@@H]1CC[C@@H](NC(N)=O)C(=O)N1Cc1cc(C(F)F)ccc1F (relative stereo) [Example A-2, 1-((3R^*,6R^*)-1-(5-(difluoromethyl)-2-fluorobenzyl)-6-methyl-2-oxopiperidin-3-yl)urea] | > 5.52
C=CCc1ccc(F)c(CN2C(=O)[C@H](NC(N)=O)CC[C@H]2C(F)(F)F)c1 [Example D-1, 1-((3R,6S)-1-(5-allyl-2-fluorobenzyl)-2-oxo-6-(trifluoromethyl)piperidin-3-yl)urea] | > 5.52
COC[C@@H]1CC[C@@H](NC(N)=O)C(=O)N1Cc1cc(C(F)(F)F)ccc1F [Example D-6, 1-((3R,6S)-1-(2-fluoro-5-(trifluoromethyl)benzyl)-6-(methoxymethyl)-2-oxopiperidin-3-yl)urea] | > 5.52
Cc1ccc(NC(N)=O)c(=O)n1Cc1cc(C(F)(F)F)ccc1F [Example B-4, 1-(1-(2-fluoro-5-(trifluoromethyl)benzyl)-6-methyl-2-oxo-1,2-dihydropyridin-3-yl)urea] | > 5.52
C[C@@H]1CC[C@@H](NC(N)=O)C(=O)N1Cc1cc(CCc2ccccc2)ccc1F (relative stereo) [Example A-12, 1-((3R^*,6R^*)-1-(2-fluoro-5-phenethylbenzyl)-6-methyl-2-oxopiperidin-3-yl)urea] | > 5.52
Cc1ccc2c(c1)N(Cc1cc(C(F)F)ccc1F)C(=O)[C@H](NC(N)=O)C2 [Example C-13, (R)-1-(1-(5-(difluoromethyl)-2-fluorobenzyl)-7-methyl-2-oxo-1,2,3,4-tetrahydroquinolin-3-yl)urea] | > 5.52

— EP4818157A1, “N-SUBSTITUTED CYCLIC AMIDE COMPOUND” (Kissei Pharmaceutical Co., Ltd., priority 2023, dated 2025)
